Laboratory results from PubChem BioAssay AID2060887 (Molecular Pharmacology Branch, DTP, NCI, 2025).

Tested on: 782815-120-R-J1-PDC complex spheroid viability
Assay: Anticancer human tumor 782815-120-R-J1-PDC patient-derived colon adenocarcinoma cell line growth inhibition [RAS]
Settings: for IC50: curve of first compound; for viability, T/C: stronger effect = lower value
In short: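 Tumour cells grown as complex spheroids with HUVEC endothelial cells and mesenchymal stem cells, treated with RAS pathway inhibitor combinations. Each agent spans half-log steps from near clinical Cmax, or 10 microM where Cmax is unknown.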

[1] = second compound 0.000949 µM, first compound 0.0316 µM
[2] = second compound 0.000949 µM, first compound 0.1 µM
[3] = second compound 0.003 µM, first compound 0.0316 µM
[4] = second compound 0.003 µM, first compound 0.1 µM
[5] = second compound 0.00949 µM, first compound 0.0316 µM
[6] = second compound 0.00949 µM, first compound 0.1 µM
[7] = second compound 0.03 µM, first compound 0.0316 µM
[8] = second compound 0.03 µM, first compound 0.1 µM
[9] = second compound 0.0949 µM, first compound 0.0316 µM
[10] = second compound 0.0949 µM, first compound 0.1 µM
[11] = second compound 0.3 µM, first compound 0.0316 µM
[12] = second compound 0.3 µM, first compound 0.1 µM
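Also: spheroids exposed to compounds for 7 days before reading.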
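For viability, T/C in this document: 100% = DMSO vehicle control viability.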

## CC(C)n1nc(-c2ccc3oc(N)nc3c2)c2c(N)ncnc21 + CCn1c(-c2cc(N3CCN(C)CC3)cnc2C(C)OC)c2c3cc(ccc31)-c1csc(n1)CC(NC(=O)C1CC1C)C(=O)N1CCCC(N1)C(=O)OCC(C)(C)C2
Second compound 0.000949 µM
  IC50: > 100 nM
Second compound 0.003 µM
  IC50: 32.6 nM
Second compound 0.00949 µM
  IC50: < 0.316 nM
Second compound 0.03 µM
  IC50: < 0.316 nM
Second compound 0.0949 µM
  IC50: < 0.316 nM
Second compound 0.3 µM
  IC50: < 0.316 nM
Second compound 0.000949 µM, first compound 0.000316 µM
  viability, T/C: 79.2%
Second compound 0.000949 µM, first compound 0.001 µM
  viability, T/C: 71.7%
Second compound 0.000949 µM, first compound 0.00316 µM
  viability, T/C: 70.3%
Second compound 0.000949 µM, first compound 0.01 µM
  viability, T/C: 71.4%
[1]
  viability, T/C: 65.5%
[2]
  viability, T/C: 65.9%
Second compound 0.003 µM, first compound 0.000316 µM
  viability, T/C: 64.2%
Second compound 0.003 µM, first compound 0.001 µM
  viability, T/C: 57.5%
Second compound 0.003 µM, first compound 0.00316 µM
  viability, T/C: 59.6%
Second compound 0.003 µM, first compound 0.01 µM
  viability, T/C: 52.9%
[3]
  viability, T/C: 53.2%
[4]
  viability, T/C: 40.9%
Second compound 0.00949 µM, first compound 0.000316 µM
  viability, T/C: 36.3%
Second compound 0.00949 µM, first compound 0.001 µM
  viability, T/C: 34.2%
Second compound 0.00949 µM, first compound 0.00316 µM
  viability, T/C: 35.9%
Second compound 0.00949 µM, first compound 0.01 µM
  viability, T/C: 29%
[5]
  viability, T/C: 27.7%
[6]
  viability, T/C: 23.7%
Second compound 0.03 µM, first compound 0.000316 µM
  viability, T/C: 19.4%
Second compound 0.03 µM, first compound 0.001 µM
  viability, T/C: 19.6%
Second compound 0.03 µM, first compound 0.00316 µM
  viability, T/C: 20.6%
Second compound 0.03 µM, first compound 0.01 µM
  viability, T/C: 17%
[7]
  viability, T/C: 14.6%
[8]
  viability, T/C: 10.7%
Second compound 0.0949 µM, first compound 0.000316 µM
  viability, T/C: 15.4%
Second compound 0.0949 µM, first compound 0.001 µM
  viability, T/C: 16.2%
Second compound 0.0949 µM, first compound 0.00316 µM
  viability, T/C: 14.8%
Second compound 0.0949 µM, first compound 0.01 µM
  viability, T/C: 14.2%
[9]
  viability, T/C: 9.96%
[10]
  viability, T/C: 6.66%
Second compound 0.3 µM, first compound 0.000316 µM
  viability, T/C: 15.2%
Second compound 0.3 µM, first compound 0.001 µM
  viability, T/C: 15.5%
Second compound 0.3 µM, first compound 0.00316 µM
  viability, T/C: 12.6%
Second compound 0.3 µM, first compound 0.01 µM
  viability, T/C: 12.4%
[11]
  viability, T/C: 8.16%
[12]
  viability, T/C: 4.66%

## CCC(CC)c1cc(NC2CCC(N)C2)n2nccc2n1 (centres undefined) + CCn1c(-c2cc(N3CCN(C)CC3)cnc2C(C)OC)c2c3cc(ccc31)-c1csc(n1)CC(NC(=O)C1CC1C)C(=O)N1CCCC(N1)C(=O)OCC(C)(C)C2
Second compound 0.000949 µM
  IC50: 2020 nM
Second compound 0.003 µM
  IC50: 1060 nM
Second compound 0.00949 µM
  IC50: < 31.6 nM
Second compound 0.03 µM
  IC50: < 31.6 nM
Second compound 0.0949 µM
  IC50: < 31.6 nM
Second compound 0.3 µM
  IC50: < 31.6 nM
[1]
  viability, T/C: 69.7%
[2]
  viability, T/C: 75.9%
Second compound 0.000949 µM, first compound 0.316 µM
  viability, T/C: 74.2%
Second compound 0.000949 µM, first compound 1 µM
  viability, T/C: 84.7%
Second compound 0.000949 µM, first compound 3.16 µM
  viability, T/C: 33.4%
Second compound 0.000949 µM, first compound 10 µM
  viability, T/C: 1.4%
[3]
  viability, T/C: 56.2%
[4]
  viability, T/C: 53.3%
Second compound 0.003 µM, first compound 0.316 µM
  viability, T/C: 57.4%
Second compound 0.003 µM, first compound 1 µM
  viability, T/C: 52%
Second compound 0.003 µM, first compound 3.16 µM
  viability, T/C: 12.1%
Second compound 0.003 µM, first compound 10 µM
  viability, T/C: 1.08%
[5]
  viability, T/C: 32.4%
[6]
  viability, T/C: 37.1%
Second compound 0.00949 µM, first compound 0.316 µM
  viability, T/C: 33.6%
Second compound 0.00949 µM, first compound 1 µM
  viability, T/C: 33.7%
Second compound 0.00949 µM, first compound 3.16 µM
  viability, T/C: 6.65%
Second compound 0.00949 µM, first compound 10 µM
  viability, T/C: 1.2%
[7]
  viability, T/C: 21.2%
[8]
  viability, T/C: 20%
Second compound 0.03 µM, first compound 0.316 µM
  viability, T/C: 19.9%
Second compound 0.03 µM, first compound 1 µM
  viability, T/C: 20.9%
Second compound 0.03 µM, first compound 3.16 µM
  viability, T/C: 3.02%
Second compound 0.03 µM, first compound 10 µM
  viability, T/C: 1.53%
[9]
  viability, T/C: 18.6%
[10]
  viability, T/C: 19.7%
Second compound 0.0949 µM, first compound 0.316 µM
  viability, T/C: 16.1%
Second compound 0.0949 µM, first compound 1 µM
  viability, T/C: 16.4%
Second compound 0.0949 µM, first compound 3.16 µM
  viability, T/C: 2.74%
Second compound 0.0949 µM, first compound 10 µM
  viability, T/C: 1.31%
[11]
  viability, T/C: 16.6%
[12]
  viability, T/C: 15.1%
Second compound 0.3 µM, first compound 0.316 µM
  viability, T/C: 16.5%
Second compound 0.3 µM, first compound 1 µM
  viability, T/C: 15.2%
Second compound 0.3 µM, first compound 3.16 µM
  viability, T/C: 1.69%
Second compound 0.3 µM, first compound 10 µM
  viability, T/C: 1.33%
